From publication PMC4303209, “A novel phosphatidylinositol 3-kinase (PI3K) inhibitor directs a potent FOXO-dependent, p53-independent cell cycle arrest phenotype characterized by the differential induction of a subset of FOXO-regulated genes” (Breast Cancer Research : BCR, 2014)

Test system: MCF-7 breast cancer cells
Experiment: Microarray gene expression analysis (Agilent whole human genome 4 x 44K; compound vs DMSO, LIMMA log2 fold change)
Assay type: cell-based

Compound: Cn1ncc2c(N3CCOCC3)nc(-c3cccc(O)c3)nc21 [ETP-45658]
- PDGFRB log2FC (gene PDGFRB (5159), apoptosis genes): 0.022
- PEG3 log2FC (gene PEG3 (5178), apoptosis genes): 0.028
- PEG10 log2FC (gene PEG10 (23089), apoptosis genes): 0.064
- PF4 log2FC (gene PF4 (5196), apoptosis genes): -0.049
- PHLDA3 log2FC (gene PHLDA3 (23612), apoptosis genes): -0.007
- PIK3CG log2FC (gene PIK3CG (5294), apoptosis genes): -0.029
- PKP1 log2FC (gene PKP1 (5317), apoptosis genes): -0.004
- PLEKHG5 log2FC (gene PLEKHG5 (57449), apoptosis genes): 0.079
- PLSCR3 log2FC (gene PLSCR3 (57048), apoptosis genes): -0.068
- POLB log2FC (gene POLB (5423), apoptosis genes): 0.060
- log2FC (gene POLD4 (Gene 57804), cell cycle genes): -0.353
- POR log2FC (gene POR (5447), apoptosis genes): 0.00332
- POU3F4 log2FC (gene POU3F4 (5456), apoptosis genes): -0.034
- POU4F1 log2FC (gene POU4F1, apoptosis genes): 0.016
- log2FC (gene PPAT (Gene 10606), cell cycle genes): 0.187
- log2FC (gene PPP1CA (Gene 5499), cell cycle genes): -0.227
- log2FC (gene PPP2CA (Gene 5515), cell cycle genes): -0.322
- PPP2R1A log2FC (gene PPP2R1A (5518), apoptosis genes): -0.055
- PRAMEF8 log2FC (gene PRAMEF8 (391002), apoptosis genes): 0.019
- PRAMEF10 log2FC (gene PRAMEF10 (343071), apoptosis genes): 0.00225
- log2FC (gene PRKACB (Gene 5567), cell cycle genes): 0.355
- log2FC PRKAG3 (gene PRKAG3 (Gene 53632), cell cycle genes): -0.00189
- PRKRA log2FC (gene PRKRA (8575), apoptosis genes): 0.029
- PRLR log2FC (gene PRLR (5618), apoptosis genes): -0.012
- PROC log2FC (gene PROC (5624), apoptosis genes): 0.006
- PROP1 log2FC (gene PROP1 (5626), apoptosis genes): -0.275
- PSMA1 log2FC (gene PSMA1 (5682), apoptosis genes): 0.045
- log2FC (gene PSMA2 (Gene 5683), cell cycle genes): 0.460
- log2FC (gene PSMA3 (Gene 5684), cell cycle genes): 0.270
- PSMA5 log2FC (gene PSMA5 (5686), apoptosis genes): -0.038
- log2FC PSMA5 (gene PSMA5 (Gene 5686), cell cycle genes): -0.038
- PSMA7 log2FC (gene PSMA7 (5688), apoptosis genes): 0.359
- log2FC PSMA7 (gene PSMA7 (Gene 5688), cell cycle genes): 0.359
- PSMB3 log2FC (gene PSMB3 (5691), apoptosis genes): -0.030
- log2FC (gene PSMB4 (Gene 5692), cell cycle genes): 0.132
- PSMB7 log2FC (gene PSMB7 (5695), apoptosis genes): -0.00851
- log2FC PSMB7 (gene PSMB7 (Gene 5695), cell cycle genes): -0.00851
- PSMB8 log2FC (gene PSMB8 (5696), apoptosis genes): -0.045
- PSMC4 log2FC (gene PSMC4 (5704), apoptosis genes): -0.021
- log2FC PSMC4 (gene PSMC4 (Gene 5704), cell cycle genes): -0.021
- PSMD2 log2FC (gene PSMD2 (5708), apoptosis genes): 0.090
- PSMD13 log2FC (gene PSMD13 (5719), apoptosis genes): -0.031
- log2FC (gene PSMD14 (Gene 10213), cell cycle genes): 0.447
- log2FC (gene PSME1 (Gene 5720), cell cycle genes): 0.322
- PSME2 log2FC (gene PSME2 (5721), apoptosis genes): 0.039
- log2FC (gene PTTG1 (Gene 9232), cell cycle genes): -0.269
- PYCARD log2FC (gene PYCARD (29108), apoptosis genes): -0.070
- log2FC (gene RAB11FIP3 (Gene 9727), cell cycle genes): -0.225
- log2FC RAD51C (gene RAD51C (Gene 5889), cell cycle genes): -0.019
- log2FC RAE1 (gene RAE1 (Gene 8480), cell cycle genes): 0.005
- RAF1 log2FC (gene RAF1 (5894), apoptosis genes): -0.038
- log2FC (gene RALA (Gene 5898), cell cycle genes): 0.348
- log2FC (gene RALB (Gene 5899), cell cycle genes): 0.324
- RAMP2 log2FC (gene RAMP2 (10266), apoptosis genes): -0.017
- log2FC RANGAP1 (gene RANGAP1 (Gene 5905), cell cycle genes): -0.026
- RAPSN log2FC (gene RAPSN (5913), apoptosis genes): -0.022
- RARB log2FC (gene RARB (5915), apoptosis genes): 0.00564
- RASSF6 log2FC (gene RASSF6 (166824), apoptosis genes): 0.042
- log2FC (gene RBBP8 (Gene 5932), cell cycle genes): 0.568
- log2FC (gene RBL1 (Gene 5933), cell cycle genes): 0.284
- log2FC (gene RBM7 (Gene 10179), cell cycle genes): 0.349
- log2FC (gene RCC1 (Gene 1104), cell cycle genes): -0.365
- log2FC REEP4 (gene REEP4 (Gene 80346), cell cycle genes): -0.031
- RET log2FC (gene RET (5979), apoptosis genes): -0.021
- RHOT2 log2FC (gene RHOT2 (89941), apoptosis genes): -0.087
- log2FC RPA2 (gene RPA2 (Gene 6118), cell cycle genes): 0.00567
- RPS3 log2FC (gene RPS3 (6188), apoptosis genes): 0.020
- RPS6KA2 log2FC (gene RPS6KA2 (6196), apoptosis genes): 0.035
- log2FC (gene RPS6KB1 (Gene 6198), cell cycle genes): 0.426
- RRN3 log2FC (gene RRN3 (653390), apoptosis genes): -0.022
- log2FC (gene RSPO1 (Gene 284654), cell cycle genes): -0.127
- RYR2 log2FC (gene RYR2 (6262), apoptosis genes): -0.020
- S100A9 log2FC (gene S100A9 (6280), apoptosis genes): 0.039
- S100A14 log2FC (gene S100A14 (57402), apoptosis genes): 0.034
- log2FC (gene SART1 (Gene 9092), cell cycle genes): -0.304
- SCIN log2FC (gene SCIN (85477), apoptosis genes): -0.012
- log2FC (gene SEH1L (Gene 81929), cell cycle genes): -0.373
- SEMA5A log2FC (gene SEMA5A (9037), apoptosis genes): -0.032
- log2FC SENP2 (gene SENP2 (Gene 59343), cell cycle genes): -0.00743
- SERINC3 log2FC (gene SERINC3 (10955), apoptosis genes): 0.046
- SERPINE1 log2FC (gene SERPINE1 (5054), apoptosis genes): -0.036
- log2FC (gene SESN1 (Gene 27244), cell cycle genes): 0.237
- SHF log2FC (gene SHF (90525), apoptosis genes): 0.026
- SKIL log2FC (gene SKIL (6498), apoptosis genes): 0.046
- log2FC SKIL (gene SKIL (Gene 6498), cell cycle genes): 0.046
- log2FC (gene SLBP (Gene 7884), cell cycle genes): 0.333
- SLC25A6 log2FC (gene SLC25A6 (293), apoptosis genes): 0.025
- log2FC SLC26A8 (gene SLC26A8 (Gene 116369), cell cycle genes): -0.003
- SLC40A1 log2FC (gene SLC40A1 (30061), apoptosis genes): -0.005
- SMAD1 log2FC (gene SMAD1 (4086), apoptosis genes): -0.074
- SMNDC1 log2FC (gene SMNDC1 (10285), apoptosis genes): -0.102
- SOD1 log2FC (gene SOD1 (6647), apoptosis genes): 0.073
- SOS1 log2FC (gene SOS1 (6654), apoptosis genes): 0.035
- SOX8 log2FC (gene SOX8 (30812), apoptosis genes): -0.391
- log2FC SPO11 (gene SPO11 (Gene 23626), cell cycle genes): 0.008
- SPTAN1 log2FC (gene SPTAN1 (6709), apoptosis genes): 0.094
- log2FC (gene SRC (Gene 6714), cell cycle genes): -0.316
- log2FC (gene STAG1 (Gene 10274), cell cycle genes): 0.343
- STK3 log2FC (gene STK3 (6788), apoptosis genes): 0.083
- SULF1 log2FC (gene SULF1 (23213), apoptosis genes): -0.096
- log2FC (gene SUPT5H (Gene 6829), cell cycle genes): -0.331
- log2FC (gene SUV39H2 (Gene 79723), cell cycle genes): -0.388
- SYCP2 log2FC (gene SYCP2 (10388), apoptosis genes): 0.016
- log2FC SYCP2 (gene SYCP2 (Gene 10388), cell cycle genes): 0.016
- log2FC SYCP3 (gene SYCP3 (Gene 50511), cell cycle genes): 0.00367
- log2FC (gene TAF2 (Gene 6873), cell cycle genes): 0.361
- log2FC TAF6 (gene TAF6 (Gene 6878), cell cycle genes): 0.055
- log2FC (gene TAOK2 (Gene 9344), cell cycle genes): -0.736
- TEK log2FC (gene TEK (7010), apoptosis genes): -0.008
- log2FC (gene TEX14 (Gene 56155), cell cycle genes): 0.240
- log2FC (gene TEX15 (Gene 56154), cell cycle genes): 0.238
- TFAP2D log2FC (gene TFAP2D (83741), apoptosis genes): -0.029
- log2FC (gene TGFA (Gene 7039), cell cycle genes): -0.305
- TGFB2 log2FC (gene TGFB2 (7042), apoptosis genes): -0.011
- log2FC TGFB2 (gene TGFB2 (Gene 7042), cell cycle genes): -0.011
- THEM4 log2FC (gene THEM4 (117145), apoptosis genes): -0.054
- log2FC THOC5 (gene THOC5 (Gene 8563), cell cycle genes): 0.010
- TMBIM4 log2FC (gene TMBIM4 (51643), apoptosis genes): 0.025
- log2FC (gene TMEM67 (Gene 91147), cell cycle genes): 0.184
- TMEM102 log2FC (gene TMEM102 (284114), apoptosis genes): -0.101
- TNFRSF1B log2FC (gene TNFRSF1B (7133), apoptosis genes): -0.022
- TNFRSF8 log2FC (gene TNFRSF8 (943), apoptosis genes): 0.055
- TNFRSF10C log2FC (gene TNFRSF10C (8794), apoptosis genes): 0.00147
- TNFSF8 log2FC (gene TNFSF8 (944), apoptosis genes): -0.043
- TNFSF9 log2FC (gene TNFSF9 (8744), apoptosis genes): 0.017
- TNFSF10 log2FC (gene TNFSF10 (8743), apoptosis genes): -0.021
- TNFSF12 log2FC (gene TNFSF12 (8742), apoptosis genes): 0.112
- TNFSF14 log2FC (gene TNFSF14 (8740), apoptosis genes): 0.017
- TNFSF15 log2FC (gene TNFSF15 (9966), apoptosis genes): 0.027
- TNFSF18 log2FC (gene TNFSF18 (8995), apoptosis genes): 0.00185
- log2FC (gene TP73 (Gene 7161), cell cycle genes): -0.503
- log2FC (gene TPD52L1 (Gene 7164), cell cycle genes): 0.379
- TPX2 log2FC (gene TPX2 (22974), apoptosis genes): 0.049
- TRAF2 log2FC (gene TRAF2 (7186), apoptosis genes): -0.056
- TRAF3IP2 log2FC (gene TRAF3IP2 (10758), apoptosis genes): -0.070
- log2FC TRIP13 (gene TRIP13 (Gene 9319), cell cycle genes): 0.007
- log2FC (gene TUBGCP6 (Gene 85378), cell cycle genes): -0.470
- TXNDC5 log2FC (gene TXNDC5 (81567), apoptosis genes): 0.070
- log2FC TYMS (gene TYMS (Gene 7298), cell cycle genes): -0.0037
- UBD log2FC (gene UBD (10537), apoptosis genes): -0.00756
- UBE2V2 log2FC (gene UBE2V2 (7336), apoptosis genes): -0.109
- UNC13B log2FC (gene UNC13B (10497), apoptosis genes): 0.009
- VDAC2 log2FC (gene VDAC2 (7417), apoptosis genes): 0.033
- VIM log2FC (gene VIM (7431), apoptosis genes): 0.051
- VIP log2FC (gene VIP (7432), apoptosis genes): -0.146
- VNN1 log2FC (gene VNN1 (8876), apoptosis genes): 0.157
- log2FC (gene VRK1 (Gene 7443), cell cycle genes): 0.426
- WNK3 log2FC (gene WNK3 (65267), apoptosis genes): 0.012
- log2FC (gene WTAP (Gene 9589), cell cycle genes): -0.387
- log2FC (gene YY1AP1 (Gene 55249), cell cycle genes): 0.220
- ZBTB16 log2FC (gene ZBTB16 (7704), apoptosis genes): 0.144
- log2FC ZC3H12D (gene ZC3H12D (Gene 85313), cell cycle genes): -0.006
- log2FC (gene ZC3HC1 (Gene 51530), cell cycle genes): 0.230
- ZNF205 log2FC (gene ZNF205 (7755), apoptosis genes): -0.229
- ZNF443 log2FC (gene ZNF443 (10224), apoptosis genes): -0.028
- log2FC (gene ZNF503 (Gene 84858), cell cycle genes): -0.229
- ZNF622 log2FC (gene ZNF622 (90441), apoptosis genes): 0.041
